These are literature values, as cited in patent US20250257354A1, “METHODS AND COMPOSITIONS RELATED TO TRNA THERAPEUTICS FOR TREATING VISION LOSS” (UNIVERSITY OF IOWA RESEARCH FOUNDATION, priority 2022, published 2025).

For the series the following is noted: ACT DMD Phase 3 NCT01826487; ACT CF NCT02139306.

SMILES strings stand for the structures.

Turning to `O=C(O)c1cccc(-c2noc(-c3ccccc3F)n2)c1` [Ataluren], the “efficacy in patient populations” value is “unexpectedly low efficacy”.
